Measurements reported in patent publication US20130029928A1 (priority 2010, published 2013).
Read-outs that look alike come from different tables or passages of the source.

Experiment: Phase I study CXR1002-001: plasma pharmacokinetics (LC-MS/MS)
Assay type: in vivo, human
Conditions: human, plasma, plasma; for concentration at 336 hr: 336 hr (Day 15)
Source text: PK samples, PD (fasting) samples, blood glucose, and blood triglyceride samples, were taken over a 6-week period.
Dose limiting toxicity (DLT) will be based on the toxicity assessments over the first 3-week period of the repeat dosing schedule. PK samples (single blood sample) were taken on the following basis: • Every 6 weeks during the repeat dosing phase • If dosing is interrupted or stopped, samples will be taken at intervals according to patient convenience • PK sampling for safety evaluation may take place at any time, as clinically indicated
Plasma samples were collected after the single 50 mg dose at the following timepoints: Pre-dose, and then 0.25, 0.5, 0.75, 1, 1.5, 2, 3, 4, 6, 24, 48, and 72 hours after administration and then once weekly at weeks 2, 3, 4, 5, and 6 (days 8, 15, 22, 29, and 36). For patients treated with the weekly repeat dose, plasma samples were collected at the following timepoints: Pre-dose and then 2, 3, 4 and 24 hours after administration for a total of 6 weeks. Thereafter a single sample was collected every 6 weeks for monitoring of exposure during long term treatment. Plasma samples were processed at site and stored at −80° C. prior to batch shipment to the analytical laboratory.

O=C(O)C(F)(F)C(F)(F)C(F)(F)C(F)(F)C(F)(F)C(F)(F)C(F)(F)F [CXR1002]
concentration at 4 hr (oral, 1200 mg, Patient 034, 1200 mg, person, 4 hr, read-out: Concentration): 560 µM
concentration at 24 hr (oral, 1200 mg, Patient 034, 1200 mg, person, 24 hr (Day 2), read-out: Concentration): 409 µM
concentration at 168 hr (oral, 1200 mg, Patient 034, 1200 mg, person, 168 hr (Day 8), read-out: Concentration): 351 µM
concentration at 170 hr (oral, 1200 mg, Patient 034, 1200 mg, person, 170 hr, read-out: Concentration): 893 µM
concentration at 171 hr (oral, 1200 mg, Patient 034, 1200 mg, person, 171 hr, read-out: Concentration): 771 µM
concentration at 172 hr (oral, 1200 mg, Patient 034, 1200 mg, person, 172 hr, read-out: Concentration): 730 µM
concentration at 192 hr (oral, 1200 mg, Patient 034, 1200 mg, person, 192 hr (Day 9), read-out: Concentration): 722 µM
concentration at 336 hr (oral, 1200 mg, Patient 034, 1200 mg, person, read-out: Concentration): 644 µM
concentration at 338 hr (oral, 1200 mg, Patient 034, 1200 mg, person, 338 hr, read-out: Concentration): 1030 µM
concentration at 339 hr (oral, 1200 mg, Patient 034, 1200 mg, person, 339 hr, read-out: Concentration): 1120 µM
concentration at 340 hr (oral, 1200 mg, Patient 034, 1200 mg, person, 340 hr, read-out: Concentration): 955 µM
concentration at 360 hr (oral, 1200 mg, Patient 034, 1200 mg, person, 360 hr (Day 16), read-out: Concentration): 1020 µM
concentration at 504 hr (oral, 1200 mg, Patient 034, 1200 mg, person, 504 hr (Day 22), read-out: Concentration): 924 µM
concentration at 506 hr (oral, 1200 mg, Patient 034, 1200 mg, person, 506 hr, read-out: Concentration): 1350 µM
concentration at 507 hr (oral, 1200 mg, Patient 034, 1200 mg, person, 507 hr, read-out: Concentration): 1220 µM
concentration at 508 hr (oral, 1200 mg, Patient 034, 1200 mg, person, 508 hr, read-out: Concentration): 1440 µM
concentration at 528 hr (oral, 1200 mg, Patient 034, 1200 mg, person, 528 hr (Day 23), read-out: Concentration): 1360 µM
concentration at 672 hr (oral, 1200 mg, Patient 034, 1200 mg, person, 672 hr (Day 29), read-out: Concentration): 1080 µM
concentration at 674 hr (oral, 1200 mg, Patient 034, 1200 mg, person, 674 hr, read-out: Concentration): 1310 µM
concentration at 675 hr (oral, 1200 mg, Patient 034, 1200 mg, person, 675 hr, read-out: Concentration): 1450 µM
concentration at 676 hr (oral, 1200 mg, Patient 034, 1200 mg, person, 676 hr, read-out: Concentration): 1380 µM
concentration at 696 hr (oral, 1200 mg, Patient 034, 1200 mg, person, 696 hr (Day 30), read-out: Concentration): 1310 µM
concentration at 2 hr (oral, 1200 mg, Patient 035, 1200 mg, person, 2 hr, read-out: Concentration): 298 µM
concentration at 3 hr (oral, 1200 mg, Patient 035, 1200 mg, person, 3 hr, read-out: Concentration): 196 µM
concentration at 4 hr (oral, 1200 mg, Patient 035, 1200 mg, person, 4 hr, read-out: Concentration): 317 µM
concentration at 24 hr (oral, 1200 mg, Patient 035, 1200 mg, person, 24 hr (Day 2), read-out: Concentration): 261 µM
concentration at 168 h (oral, 1200 mg, Patient 035, 1200 mg, person, 168 hr (Day 8), read-out: Concentration): 254 µM
concentration at 170 h (oral, 1200 mg, Patient 035, 1200 mg, person, 170 hr, read-out: Concentration): 460 µM
concentration at 171 h (oral, 1200 mg, Patient 035, 1200 mg, person, 171 hr, read-out: Concentration): 479 µM
concentration at 172 h (oral, 1200 mg, Patient 035, 1200 mg, person, 172 hr, read-out: Concentration): 592 µM
concentration at 192 h (oral, 1200 mg, Patient 035, 1200 mg, person, 192 hr (Day 9), read-out: Concentration): 543 µM
concentration at 336 hr (oral, 1200 mg, Patient 035, 1200 mg, person, read-out: Concentration): 476 µM
concentration at 338 hr (oral, 1200 mg, Patient 035, 1200 mg, person, 338 hr, read-out: Concentration): 570 µM
concentration at 339 hr (oral, 1200 mg, Patient 035, 1200 mg, person, 339 hr, read-out: Concentration): 621 µM
concentration at 340 hr (oral, 1200 mg, Patient 035, 1200 mg, person, 340 hr, read-out: Concentration): 649 µM
concentration at 360 h (oral, 1200 mg, Patient 035, 1200 mg, person, 360 hr (Day 16), read-out: Concentration): 704 µM
concentration at 504 h (oral, 1200 mg, Patient 035, 1200 mg, person, 504 hr (Day 22), read-out: Concentration): 600 µM
concentration at 506 h (oral, 1200 mg, Patient 035, 1200 mg, person, 506 hr, read-out: Concentration): 774 µM
concentration at 507 h (oral, 1200 mg, Patient 035, 1200 mg, person, 507 hr, read-out: Concentration): 925 µM
concentration at 508 h (oral, 1200 mg, Patient 035, 1200 mg, person, 508 hr, read-out: Concentration): 1020 µM
concentration at 2 hr (po, 1000 mg, Patient 041, 1000 mg weekly oral dose, Time 2 hr, read-out: Concentration (plasma level)): 223 µM
concentration at 3 hr (po, 1000 mg, Patient 041, 1000 mg weekly oral dose, Time 3 hr, read-out: Concentration (plasma level)): 233 µM
concentration at 4 hr (po, 1000 mg, Patient 041, 1000 mg weekly oral dose, Time 4 hr, read-out: Concentration (plasma level)): 207 µM
concentration at 24 hr (po, 1000 mg, Patient 041, 1000 mg weekly oral dose, Time 24 hr (Day 2), read-out: Concentration (plasma level)): 175 µM
concentration at 168 hr (po, 1000 mg, Patient 041, 1000 mg weekly oral dose, Time 168 hr (Day 8), read-out: Concentration (plasma level)): 171 µM
concentration at 170 hr (po, 1000 mg, Patient 041, 1000 mg weekly oral dose, Time 170 hr, read-out: Concentration (plasma level)): 342 µM
concentration at 171 hr (po, 1000 mg, Patient 041, 1000 mg weekly oral dose, Time 171 hr, read-out: Concentration (plasma level)): 413 µM
concentration at 172 hr (po, 1000 mg, Patient 041, 1000 mg weekly oral dose, Time 172 hr, read-out: Concentration (plasma level)): 357 µM
concentration at 192 hr (po, 1000 mg, Patient 041, 1000 mg weekly oral dose, Time 192 hr (Day 9), read-out: Concentration (plasma level)): 396 µM
concentration at 336 h (po, 1000 mg, Patient 041, 1000 mg weekly oral dose, Time 336 hr (Day 15), read-out: Concentration (plasma level)): 294 µM
concentration at 338 hr (po, 1000 mg, Patient 041, 1000 mg weekly oral dose, Time 338 hr, read-out: Concentration (plasma level)): 411 µM
concentration at 339 hr (po, 1000 mg, Patient 041, 1000 mg weekly oral dose, Time 339 hr, read-out: Concentration (plasma level)): 485 µM
concentration at 340 hr (po, 1000 mg, Patient 041, 1000 mg weekly oral dose, Time 340 hr, read-out: Concentration (plasma level)): 478 µM
concentration at 360 hr (po, 1000 mg, Patient 041, 1000 mg weekly oral dose, Time 360 hr (Day 16), read-out: Concentration (plasma level)): 508 µM
concentration at 504 hr (po, 1000 mg, Patient 041, 1000 mg weekly oral dose, Time 504 hr (Day 22), read-out: Concentration (plasma level)): 558 µM
concentration at 506 hr (po, 1000 mg, Patient 041, 1000 mg weekly oral dose, Time 506 hr, read-out: Concentration (plasma level)): 674 µM
concentration at 507 hr (po, 1000 mg, Patient 041, 1000 mg weekly oral dose, Time 507 hr, read-out: Concentration (plasma level)): 748 µM
concentration at 508 hr (po, 1000 mg, Patient 041, 1000 mg weekly oral dose, Time 508 hr, read-out: Concentration (plasma level)): 676 µM
